Measurements as given in patent US12655116B2, “Substituted isophthalic acid diamides” (Bayer Aktiengesellschaft, priority 2020, dated 2026).

Tests used:
SETVI [1] = assay: Post-emergence herbicidal action against SETVI; format: in vivo, Setaria viridis
In short: (§1)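 Greenhouse pot plants in sandy loam were sprayed at the one-leaf stage, 2 to 3 weeks after sowing, with WP or EC formulations as aqueous suspension or emulsion (600 to 800 l/ha water, 0.2% wetting agent). About 3 weeks later, damage was scored visually against untreated controls as % action (100% = dead, 0% = like control).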

SETVI [2] = assay: Pre-emergence herbicidal action against SETVI; format: in vivo, Setaria viridis
In short: (§2)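 Visual rating at 3 weeks vs untreated pots; 0–100% scale, 100% = plants died. Treatment: aqueous WP/EC spray onto covering soil, 600–800 l/ha, 0.2% wetter, seeds in sandy loam.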

LOLRI = assay: Pre-emergence herbicidal action against LOLRI; format: in vivo, Lolium rigidum; details: 80 g/ha
In short: as §2

VERPE = assay: Post-emergence herbicidal action against VERPE; format: in vivo, Veronica persica
In short: as §1

ECHCG [3] = assay: Pre-emergence herbicidal action against ECHCG; format: in vivo, Echinochloa crus-galli
In short: as §2

VIOTR [4] = assay: Pre-emergence herbicidal action against VIOTR; format: in vivo, Viola tricolor
In short: as §2

MATIN [5] = assay: Pre-emergence herbicidal action against MATIN; format: in vivo, Matricaria inodora
In short: as §2

AVEFA = assay: Pre-emergence herbicidal action against AVEFA; format: in vivo, Avena fatua
In short: as §2

ECHCG [6] = assay: Post-emergence herbicidal action against ECHCG; format: in vivo, Echinochloa crus-galli
In short: as §1

VIOTR [7] = assay: Post-emergence herbicidal action against VIOTR; format: in vivo, Viola tricolor
In short: as §1

AMARE [8] = assay: Pre-emergence herbicidal action against AMARE; format: in vivo, Amaranthus retroflexus
In short: as §2

DIGSA [9] = assay: Pre-emergence herbicidal action against DIGSA; format: in vivo, Digitaria sanguinalis
In short: as §2

AMARE [10] = assay: Post-emergence herbicidal action against AMARE; format: in vivo, Amaranthus retroflexus; details: 20 g/ha, visual assessment about 3 weeks after treatment, 100% = plants have died, 0% = like control plants
In short: as §1

PHBPU [11] = assay: Pre-emergence herbicidal action against PHBPU; format: in vivo, Pharbitis purpurea
In short: as §2

ALOMY [12] = assay: Post-emergence herbicidal action against ALOMY; format: in vivo, Alopecurus myosuroides; details: dosage 20 g/ha, visual assessment about 3 weeks after treatment vs untreated controls
In short: as §1

PHBPU [13] = assay: Post-emergence herbicidal action against PHBPU; format: in vivo, Pharbitis purpurea; details: dosage 20 g/ha
In short: as §1

ALOMY [14] = assay: Pre-emergence herbicidal action against ALOMY; format: in vivo, Alopecurus myosuroides; details: pre-emergence
In short: as §2

MATIN [15] = assay: Post-emergence herbicidal action against MATIN; format: in vivo, Matricaria inodora; details: dosage 20 g/ha
In short: as §1

ABUTH [16] = assay: Pre-emergence herbicidal action against ABUTH; format: in vivo, Abutilon theophrasti
In short: as §2

DIGSA [17] = assay: Post-emergence herbicidal action against DIGSA; format: in vivo, Digitaria sanguinalis; details: 20 g/ha
In short: as §1

ABUTH [18] = assay: Post-emergence herbicidal action against ABUTH; format: in vivo, Abutilon theophrasti; details: Abutilon theophrasti, 504 h, visual assessment about 3 weeks after treatment vs untreated controls
In short: as §1

[19] = 20 g/ha, scored visually after 3 weeks vs untreated controls, 100% = plants have died, 0% = like control plants
[20] = 80 g/ha, scored visually after 3 weeks vs untreated controls (100% = plants have died, 0% = like control plants)

CCn1nnnc1NC(=O)c1ccc(C(F)(F)F)c(C(=O)NCC(F)(F)F)c1Cl [Example 2-133]
Post-emergence action against SETVI in % (SETVI [1]; dosage 5 g/ha): 80%
Post-emergence action against SETVI in % (SETVI [1]; dosage 20 g/ha): 90%
Pre-emergence action against SETVI in % (SETVI [2]; dosage 20 g/ha): 100%
Pre-emergence action against SETVI in % (SETVI [2]; dosage 80 g/ha): 100%
Pre-emergence action against LOLRI in % (LOLRI): 80%
Post-emergence action against VERPE in % (VERPE; 5 g/ha): 80%
Post-emergence action against VERPE in % (VERPE; 20 g/ha): 80%
Pre-emergence action against ECHCG in % (ECHCG [3]; 80 g/ha): 100%
Pre-emergence action against VIOTR in % (VIOTR [4]; dosage 80 g/ha): 90%
Pre-emergence action against MATIN in % (MATIN [5]; dosage 20 g/ha): 90%
Pre-emergence action against MATIN in % (MATIN [5]; dosage 80 g/ha): 100%
Pre-emergence action against AVEFA in % (AVEFA; 80 g/ha, pre-emergence): 90%
Post-emergence action against ECHCG in % (ECHCG [6]; dosage 20 g/ha): 80%
Post-emergence action against VIOTR in % (VIOTR [7]; 20 g/ha): 80%
Pre-emergence action against AMARE in % (AMARE [8]; [19]): 90%
Pre-emergence action against AMARE in % (AMARE [8]; [20]): 100%
Pre-emergence action against DIGSA in % (DIGSA [9]; dosage 80 g/ha): 90%
Post-emergence action at 20 g/ha against AMARE in % (AMARE [10]): 90%
Pre-emergence action against PHBPU in % (PHBPU [11]; dosage 80 g/ha): 80%
Post-emergence action against ALOMY in % (ALOMY [12]): 80%
Post-emergence action against PHBPU in % (PHBPU [13]): 80%
Pre-emergence action against ALOMY (herbicidal activity) (ALOMY [14]; [20]): 90%
Post-emergence action against MATIN in % (MATIN [15]): 90%
Pre-emergence action against ABUTH (herbicidal activity) (ABUTH [16]; [20]): 100%

CCn1nnnc1NC(=O)c1ccc(C(F)(F)F)c(C(=O)NCC(F)F)c1Cl [Example 2-134]
Pre-emergence action against SETVI in % (SETVI [2]; dosage 20 g/ha): 80%
Pre-emergence action against SETVI in % (SETVI [2]; dosage 80 g/ha): 100%
Pre-emergence action against LOLRI in % (LOLRI): 80%
Post-emergence action against VERPE in % (VERPE; 20 g/ha): 80%
Pre-emergence action against ECHCG in % (ECHCG [3]; 20 g/ha): 80%
Pre-emergence action against ECHCG in % (ECHCG [3]; 80 g/ha): 100%
Pre-emergence action against VIOTR in % (VIOTR [4]; dosage 20 g/ha): 100%
Pre-emergence action against VIOTR in % (VIOTR [4]; dosage 80 g/ha): 100%
Pre-emergence action against MATIN in % (MATIN [5]; dosage 20 g/ha): 90%
Pre-emergence action against MATIN in % (MATIN [5]; dosage 80 g/ha): 100%
Pre-emergence action against AVEFA (AVEFA; 20 g/ha, scored visually after 3 weeks, 100% = plants have died, 0% = like control plants): 80%
Pre-emergence action against AVEFA in % (AVEFA; 80 g/ha, pre-emergence): 90%
Post-emergence action against ECHCG in % (ECHCG [6]; dosage 20 g/ha): 90%
Post-emergence action against VIOTR in % (VIOTR [7]; 5 g/ha): 80%
Post-emergence action against VIOTR in % (VIOTR [7]; 20 g/ha): 90%
Pre-emergence action against AMARE in % (AMARE [8]; [19]): 100%
Pre-emergence action against AMARE in % (AMARE [8]; [20]): 100%
Pre-emergence action against DIGSA in % (DIGSA [9]; dosage 20 g/ha): 80%
Pre-emergence action against DIGSA in % (DIGSA [9]; dosage 80 g/ha): 100%
Post-emergence action at 20 g/ha against AMARE in % (AMARE [10]): 100%
Pre-emergence action against PHBPU in % (PHBPU [11]; dosage 20 g/ha): 80%
Pre-emergence action against PHBPU in % (PHBPU [11]; dosage 80 g/ha): 90%
Post-emergence action against DIGSA (DIGSA [17]): 80%
Post-emergence action against ALOMY in % (ALOMY [12]): 80%
Post-emergence action against PHBPU in % (PHBPU [13]): 90%
Pre-emergence action against ALOMY (herbicidal activity) (ALOMY [14]; [20]): 90%
Post-emergence action against MATIN in % (MATIN [15]): 80%
Pre-emergence action against ABUTH (herbicidal activity) (ABUTH [16]; [20]): 100%
Pre-emergence action against ABUTH (herbicidal activity in percent) (ABUTH [16]; dosage 20 g/ha, scored visually after 3 weeks vs untreated controls, 100% = plants have died, 0% = like control plants): 100%

CC(C)NC(=O)c1c(Br)ccc(C(=O)Nc2nnnn2C)c1Cl [Example 1-185]
pest or weed control at 5 g/ha (SETVI [1]; Setaria viridis, 504 h, dosage 5 g/ha): 80%
pest or weed control at 20 g/ha (SETVI [1]; Setaria viridis, 504 h, dosage 20 g/ha): 100%
pest or weed control at 80 g/ha (SETVI [2]; Setaria viridis, 504 h, dosage 80 g/ha): 100%
pest or weed control at 80 g/ha (LOLRI; Lolium rigidum, 504 h): 90%
pest or weed control at 5 g/ha (ABUTH [18]; dosage 5 g/ha): 80%
pest or weed control at 20 g/ha (ABUTH [18]; dosage 20 g/ha): 90%
pest or weed control at 20 g/ha (VERPE; Veronica persica, 504 h, 20 g/ha): 80%
pest or weed control at 80 g/ha (ECHCG [3]; Echinochloa crus-galli, 504 h, 80 g/ha): 100%
pest or weed control at 20 g/ha (VIOTR [4]; Viola tricolor, 504 h, dosage 20 g/ha): 80%
pest or weed control at 80 g/ha (VIOTR [4]; Viola tricolor, 504 h, dosage 80 g/ha): 100%
pest or weed control at 20 g/ha (MATIN [5]; Tripleurospermum inodorum, 504 h, dosage 20 g/ha): 100%
pest or weed control at 80 g/ha (MATIN [5]; Tripleurospermum inodorum, 504 h, dosage 80 g/ha): 100%
pest or weed control at 80 g/ha (AVEFA; Avena fatua, 504 h, 80 g/ha, pre-emergence): 100%
pest or weed control at 5 g/ha (ECHCG [6]; Echinochloa crus-galli, 504 h, dosage 5 g/ha): 90%
pest or weed control at 20 g/ha (ECHCG [6]; Echinochloa crus-galli, 504 h, dosage 20 g/ha): 100%
pest or weed control at 20 g/ha (VIOTR [7]; Viola tricolor, 504 h, 20 g/ha): 80%
pest or weed control at 20 g/ha (AMARE [8]; Amaranthus retroflexus, 504 h, 20 g/ha, scored visually after 3 weeks vs untreated controls, 100% = plants have died, 0% = like control plants): 100%
pest or weed control at 80 g/ha (AMARE [8]; Amaranthus retroflexus, 504 h, 80 g/ha, scored visually after 3 weeks vs untreated controls, 100% = plants have died, 0% = like control plants): 100%
pest or weed control at 20 g/ha (AMARE [10]; Amaranthus retroflexus, 504 h): 100%
pest or weed control at 80 g/ha (PHBPU [11]; Ipomoea purpurea, 504 h, dosage 80 g/ha): 80%
pest or weed control at 20 g/ha (ALOMY [12]; Alopecurus myosuroides, 504 h): 90%
pest or weed control at 80 g/ha (ALOMY [14]; Alopecurus myosuroides, 504 h, 80 g/ha, scored visually after 3 weeks vs untreated controls (100% = plants have died, 0% = like control plants)): 100%
pest or weed control at 20 g/ha (ALOMY [14]; Alopecurus myosuroides, 504 h, 20 g/ha, scored visually after 3 weeks, 100% = plants have died, 0% = like control plants): 90%
pest or weed control at 80 g/ha (ABUTH [16]; Abutilon theophrasti, 504 h, 80 g/ha, scored visually after 3 weeks vs untreated controls (100% = plants have died, 0% = like control plants)): 100%
pest or weed control at 20 g/ha (ABUTH [16]; Abutilon theophrasti, 504 h, dosage 20 g/ha, scored visually after 3 weeks vs untreated controls, 100% = plants have died, 0% = like control plants, read-out: Pre-emergence action against ABUTH (herbicidal activity in percent)): 100%
